Reference: US9394561B2, “Cyclic peptide production” (National Research Council of Canada, priority 2011, dated 2016)
“Also recorded” adds a separate entry of the source. Square brackets hold non-standard residues; d marks the D form. Ends that are not written are not given here.

Tested on: S. vaccaria PCY1
Test: In vitro assay of recombinant S. vaccaria PCY1 with wild type and mutant presegetalin substrates, products detected by LC/MS
Type: biochemical, Saponaria vaccaria
Design: key to CP (cyclic peptide product detected by LC/MS after in vitro assay) / LP (linear peptide product detected by LC/MS after in vitro assay): +=presence; −=absence
Settings: for cyclic peptide production by S. vaccaria PCY1 (in words) / linear peptide production by S. vaccaria PCY1 (in words): LC/MS and MS/MS; for CP (cyclic peptide product detected by LC/MS after in vitro assay) / LP (linear peptide product detected by LC/MS after in vitro assay): substrates tested for cyclization by S. vaccaria PCY1
Procedure: The gene corresponding to S. vaccaria PCY1 was cloned and expressed in E. coli with a His-tag. HisPur Cobalt Resin™ (Thermo Scientific) was used for purification of recombinant PCY1. The purified PCY1 was quantified using BCA method (Pierce; http://http://www.piercenet.com/) with BSA as a calibration standard. The in vitro assay contained 20 mM Tris buffer (pH 8.5), 100 mM NaCl, 5 mM DTT, 0.2 mg BSA, and 1.5 μg of substrates (wild type and mutant presegetalins, procured from Bio Basic Inc with >90% purity) and was initiated by the addition of 0.3 μg of PCY1, in a total reaction volume of 100 μl. The assay was incubated at 30° C. for up to 1 h and stopped by placing reactions in dry ice. The assays were lyophilized, re-suspended in methanol, evaporated and re-suspended in 50:50 v/v methanol/water for LC/MS analysis.
Ion trap ESI+ LC/MS/MS analysis was used to detect production of cyclic peptides using an Agilent 6320 Ion Trap LC/MS system under default Smart Parameter settings. The analyzer and ion optics were adjusted to achieve proper resolution (Agilent Installation Guide #G2440-90105) using the ESI Tuning Mix (Agilent #G2431A). The mass spectrometer scanned from 50 to 2200 mass units at 8100 mass units sec^−1 with an expected peak width of 0.35 atomic mass units. For auto MS/MS, the trap isolation width was 4 atomic mass units. The associated Agilent 1200 LC was fitted with a Zorbax 300 EXTEND-C18 column (150×2.1 mm, 3.5 μm particle size) maintained at 35° C. The binary solvent system consisted of 90:10 v/v water/acetonitrile containing 0.1% formic acid and 0.1% ammonium formate (solvent A) and 10:90 v/v water/acetonitrile containing 0.1% formic acid and 0.1% ammonium formate (solvent B). The separation gradient was 90:10 A/B to 50:50 A/B in 3 ml over 20 min.
In order to characterize substrate specificity of PCY1 and understand the segetalin A biosynthetic mechanism, a total of 44 substrates (Table 3) were tested for the PCY1 activity and the results are briefly summarized in Table 3. The last two columns in Table 3 summarize product type detected by LC/MS after in vitro assays (CP is cyclic peptide and LP is linear peptide, +=presence, −=absence, NA=not applicable). The 44 substrates were classified as follows: • (A) Presegetalin A1 [14,32], a wild type (WT) precursor of segetalin A • (B) Truncated mutants of presegetalin A1[14,32] • (C) Alanine scanning mutants corresponding to variants of the mature segetalin A sequence • (D) Alanine scanning mutants of the C-terminal region of presegetalin A1[14,32] • (E) D-amino acid mutants corresponding to variants of the mature segetalin A sequence • (F) Insertion mutants corresponding to variants of the mature segetalin A sequence • (G) Other A-class and F-class presegetalins • (H) Putative cyclic peptide precursors from Dianthus caryophyllus

S. vaccaria PCY1, sequence (as listed by the source): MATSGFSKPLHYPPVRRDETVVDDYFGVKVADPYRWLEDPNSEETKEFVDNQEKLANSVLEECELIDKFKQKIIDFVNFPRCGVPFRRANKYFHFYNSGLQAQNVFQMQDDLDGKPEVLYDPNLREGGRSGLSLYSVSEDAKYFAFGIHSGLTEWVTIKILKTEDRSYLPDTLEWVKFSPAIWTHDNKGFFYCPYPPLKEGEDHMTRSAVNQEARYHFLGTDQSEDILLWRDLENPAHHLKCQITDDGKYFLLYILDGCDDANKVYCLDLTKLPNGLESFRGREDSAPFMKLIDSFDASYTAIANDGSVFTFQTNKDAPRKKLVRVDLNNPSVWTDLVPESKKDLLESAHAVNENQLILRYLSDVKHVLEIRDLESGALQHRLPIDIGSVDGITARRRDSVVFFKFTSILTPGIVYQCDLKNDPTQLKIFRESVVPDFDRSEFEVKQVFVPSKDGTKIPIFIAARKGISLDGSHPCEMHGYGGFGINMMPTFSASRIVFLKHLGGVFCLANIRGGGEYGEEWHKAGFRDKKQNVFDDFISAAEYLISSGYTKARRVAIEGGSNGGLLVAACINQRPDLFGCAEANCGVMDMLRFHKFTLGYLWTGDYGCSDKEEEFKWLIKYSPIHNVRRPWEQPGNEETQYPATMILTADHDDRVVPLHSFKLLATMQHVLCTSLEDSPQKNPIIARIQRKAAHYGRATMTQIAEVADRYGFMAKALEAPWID

| Substance | cyclic peptide production by S. vaccaria PCY1 (in words) | CP (cyclic peptide product detected by LC/MS after in vitro assay) | LP (linear peptide product detected by LC/MS after in vitro assay) | PCY1 activity (total amount of segetalin A produced) (WT precursor, optimized assay condition) | linear peptide production by S. vaccaria PCY1 (in words) | increase in segetalin A production relative to wild type presegetalin A1[14,32] (alanine scanning mutants of C-terminal region) |
| --- | --- | --- | --- | --- | --- | --- |
| 16 (GVPVWAFQAADVENASAPV; Presegetalin A1[14,32] K23A) [compound 16] | sensitive | + | + |  |  |  |
| 10 (GVPAWAFQAKDVENASAPV; Presegetalin A1[14,32] variant aa17 = alanine) [compound 10] |  | + | + |  |  |  |
| 14 (GVPVWAFAAKDVENASAPV; Presegetalin A1[14,32] Q21A) [compound 14] | sensitive | + | + |  |  |  |
| 19 (GVPVWAFQAKDVANASAPV; Presegetalin A1[14,32] E26A) [compound 19] | relatively higher amounts of segetalin A than that produced from WT substrate | + | + |  |  |  |
| 42 (FGTHGLPAPIQVPNGMDDACAPM; Presegetalin J1[14,36]) [compound 42] | cyclic peptide products were detected from all of them | + | − |  |  |  |
| 1 (GVPVWAFQAKDVENASAPV; listed as Saponaria vaccaria) [compound 1] | segetalin A and the linear form (linear peptide) of segetalin A were produced; also recorded: cyclic peptide products were detected from all of them | + | + | 3 nmol/mg of protein/min |  |  |
| 43 (GPIPFYGFQAKDAENASVPV; - Dianthus Precursor A[14,33]) [compound 43] | small amount of cyclic peptide production | + | − |  |  |  |
| 23 (GVPVWAFQAKDVENASVPV; Presegetalin A1[14,32] A30V) [compound 23] |  | + | + |  |  |  |
| 18 (GVPVWAFQAKDAENASAPV; Presegetalin A1[14,32] V25A) [compound 18] | relatively higher amounts of segetalin A than that produced from WT substrate | + | + |  |  |  |
| 29 (GVPV[dW]AFQAKDVENASAPV) [compound 29] |  | + | + |  |  |  |
| 37 (GLSFAFQAKDAENASSPV; Presegetalin D1[14,31] P20Q) [compound 37] | resulted in a 5 amino acid cyclic peptide product | + | − |  |  |  |
| 27 (GV[dP]VWAFQAKDVENASAPV) [compound 27] |  | + | − |  |  |  |
| 2 (GVPVWAFQAKDVENAPV; Presegetalin A1[14,30]) [compound 2] |  |  | + |  | almost equivalent to the linear peptide formed from the WT substrate |  |
| Presegetalin A1[14,32]F20A (GVPVWAAQAKDVENASAPV; Presegetalin A1[14,32] F20A) [No. 13] |  |  |  |  | presence of linear peptide was confirmed by MS/MS analysis |  |
| 41 (FSASYSSKPIQTQVSNGMDNASAPV; Presegetalin F1[14,38]) [compound 41] | cyclic peptide products were detected from all of them | + | − |  |  |  |
| 20 (GVPVWAFQAKDVEAASAPV; Presegetalin A1[14,32] N27A) [compound 20] | sensitive | + | + |  |  |  |
| Presegetalin A1[14,32]W18w (GVPV[dW]AFQAKDVENASAPV) [No. 29] | relatively weakly converted to cyclic peptide |  |  |  |  |  |
| 13 (GVPVWAAQAKDVENASAPV; Presegetalin A1[14,32] F20A) [compound 13] | sensitive | + | + |  |  |  |
| 4 (GVPVWAFQAKD; Presegetalin A1[14,24]) [compound 4] |  | − | + |  | almost equivalent to the linear peptide formed from the WT substrate |  |
| 35 (GVAWAFQAKDVENASAPV; Presegetalin B1[14,31]) [compound 35] | cyclic peptide products were detected from all of them | + | − |  |  |  |
| 40 (GLPGWPFQAKDVENASAPV; Presegetalin L1[14,32]) [compound 40] | cyclic peptide products were detected from all of them | + | − |  |  |  |
| 8 (GAPVWAFQAKDVENASAPV; Presegetalin A1[14,32] variant aa15 = alanine) [compound 8] |  | + | + |  |  |  |
| 22 (GVPVWAFQAKDVENAAAPV; Presegetalin A1[14,32] S29A) [compound 22] | relatively higher amounts of segetalin A than that produced from WT substrate | + | + |  |  | 30% |
| 9 (GVAVWAFQAKDVENASAPV; Presegetalin A1[14,32] variant aa16 = alanine) [compound 9] |  | + | + |  |  |  |
